{
  "source": "paper PMC6599006",
  "about": "“Rational design using sequence information only produces a peptide that binds to the intrinsically disordered region of p53” (Scientific Reports, 2019)",
  "key": {"[1]": {"system": "FL-p53 binding to spDNA (p21)", "experiment": "Fluorescence anisotropy titration of FL-p53 against spDNA in the presence of peptide", "assay_type": "biochemical, human", "settings": "saturated at 300 μM DP6", "from_the_text": "(§1) We prepared FL-p53, TetCT mutant, and CoreTet mutant as described previously. For FL-p53, the thermostable and cysteine-modified mutant of human p53 (C124A, C135V, C141V, W146Y, C182S, V203A, R209P, C229Y, H233Y, Y234F, N235K, Y236F, T253V, N268D, C275A, C277A, K292C) was used[11]. The TetCT mutant corresponds to residues 293−393 of human p53 with an additional N-terminal cysteine. The CoreTet mutant corresponds to residues 1–363 of FL-p53[12]. Expression and purification of the three mutants was conducted as previously described[11],[12]. Briefly, all mutants with a GST tag were expressed in Escherichia coli and were collected from a GST column after cleavage of the GST tag and further purified by using a heparin column. The DNA binding ability of all mutants was confirmed by titration experiments as described elsewhere[10]–[12]. […]\n(§2) The fluorescence anisotropy of fluorescent CT peptide or DNA was measured at 25 °C using a fluorescence spectrometer (FP-6500, JASCO Co., Tokyo, Japan) with an automatic titrator and home-build autorotating polarizer. […] For p53 mutants, the concentration was calculated for the tetramer."}, "[2]": {"system": "CoreTet mutant of p53 binding to spDNA (p21)", "experiment": "Fluorescence anisotropy titration of CoreTet mutant against spDNA in the presence of DP6", "assay_type": "biochemical, human", "settings": "600 μM DP6", "description": "(§3) The solution used here included 100 mM KCl to mimic physiological conditions.\nas §1, §2"}, "[3]": {"target": "T1, FL-p53 labeled with Atto532 sliding along nspDNA (λDNA array) (Homo sapiens, UniProt P04637, C124A/C135V/C141V/C182S/C229Y/C275A/C277A/H233Y/K292C/N235K/N268D/R209P/T253V/V203A/W146Y/Y234F/Y236F)", "T1 construct": "we prepared three p53 constructs: full-length p53 (FL-p53); GST (cleaved yes); made in house; host or cells: Escherichia coli", "experiment": "Single-molecule fluorescence measurement of 1D sliding of FL-p53 along DNA (DNA garden)", "assay_type": "biochemical", "settings": "displacement analysis, time interval 165 ms; for Fraction of fast sliding mode of FL-p53: 100 mM KCl, 2 mM MgCl2, pH 7.9", "experimental": "The 1D sliding of FL-p53 labeled with Atto532 along DNA was measured by a custom-built TIRF microscope, as described previously[11],[39]. The λDNA array tethered on the coverslip of the flow cell was constructed using microcontact printing as described previously[39]. FL-p53 was labeled with Atto532 as described elsewhere[11]. FL-p53 with Atto532 at 2–4 nM was introduced into the flow cell with the DNA array by a syringe pump and measured at a flow rate of 500 μL/min, corresponding to 90% extension of λDNA. […] The experiments were conducted immediately after the dilution of FL-p53 from the stock solution at more than 10 μM and finished within 50 min to prevent the dissociation of the tetramer[40]. The analysis was described previously[11]. For distribution analysis, the following fitting equation was used:3 P(δx)=∑i=12Ai/4πDiδtexp(−(δx+viδt)^2/4Diδt), where P(δx), δt, δx, Ai, vi, and Di are the occurrence of δx, time interval, displacement in the time interval, amplitude of the ith mode, drift velocity of the ith mode, and diffusion coefficient of the ith mode, respectively."}, "[4]": {"target": "T2, CT peptide (residues 367–393 of human p53) (Homo sapiens, UniProt P04637)", "T2 construct": "CT peptide (residues 367–393 of human p53) labeled with FAM at the N-terminus; purchased Toray Research Center Inc., Tokyo, Japan; host or cells: chemical synthesis", "experiment": "Fluorescence anisotropy titration of peptides against FAM-labeled CT peptide of p53", "assay_type": "binding", "settings": "absence of salt; versus Wmot2, Cul7, WS100B peptides", "experimental": "To test how well our method worked, we titrated the designed peptides against the CT peptide (residues 367–393) labeled with a fluorescent dye, FAM, using a fluorometer with fluorescence anisotropy[11]\nThe fluorescence anisotropy of fluorescent CT peptide or DNA was measured at 25 °C using a fluorescence spectrometer (FP-6500, JASCO Co., Tokyo, Japan) with an automatic titrator and home-build autorotating polarizer[11]. […] The titration curves were fitted by the following equations:1 robs=rA(cA−cAB)/cA+rABcAB/cA, 2 cAB=(cA+cB+KD)−(cA+cB+KD)^2−4cAcB/2, where robs, rA, rAB, KD, cA, and cB are the observed anisotropy, anisotropy of free molecule A, anisotropy of the complex between molecules A and B, dissociation constant, total concentration of molecule A and total concentration of molecule B, respectively. For p53 mutants, the concentration was calculated for the tetramer."}, "[5]": {"system": "TetCT mutant of p53 binding to nspDNA (random sequence)", "experiment": "Fluorescence anisotropy titration of TetCT mutant against nspDNA in the presence of DP6", "assay_type": "biochemical, human", "settings": "at more than 150 μM DP6; 100 mM KCl", "description": "as §3, §1, §2"}, "[6]": {"system": "FL-p53 binding to nspDNA (random sequence)", "experiment": "Fluorescence anisotropy titration of FL-p53 against nspDNA in the presence of peptide", "assay_type": "biochemical, human", "from_the_text": "as §1, §2"}},
  "note": "Peptide text beside a SMILES is read from it.",
  "data": [
    {"smiles": "NC(=O)C[C@H](NC(=O)[C@H](CC(N)=O)NC(=O)[C@H](CC(=O)O)NC(=O)[C@H](CCC(=O)O)NC(=O)[C@H](CCC(=O)O)NC(=O)[C@H](CCC(=O)O)NC(=O)[C@H](CCC(=O)O)NC(=O)[C@@H](N)CCC(=O)O)C(=O)N[C@@H](CC(=O)O)C(=O)N[C@@H](CC(=O)O)C(=O)N[C@@H](CC(=O)O)C(=O)N[C@@H](CCC(=O)O)C(=O)N[C@@H](CCC(=O)O)C(=O)N[C@@H](CCC(=O)O)C(=O)N[C@@H](Cc1c[nH]c2ccccc12)C(=O)N[C@@H](Cc1ccccc1)C(=O)O", "note": "[DP6]", "values": [
      {"measurement": "increase of the KD of FL-p53 for spDNA", "setting": "[1]", "value": 3, "unit": "fold"},
      {"measurement": "effect on binding of the CoreTet mutant to spDNA", "setting": "[2]", "value": "did not weaken the binding"},
      {"measurement": "Fraction of slow sliding mode of FL-p53", "setting": "[3]; [DP6] 300", "value": "54 ± 1", "unit": "%"},
      {"measurement": "Fraction of fast sliding mode of FL-p53", "setting": "[3]; [DP6] 300", "value": "46 ± 2", "unit": "%"},
      {"measurement": "Fraction of slow sliding mode of FL-p53", "setting": "[3]; [DP6] 600", "value": "31 ± 2", "unit": "%"},
      {"measurement": "Fraction of fast sliding mode of FL-p53", "setting": "[3]; [DP6] 600", "value": "69 ± 1", "unit": "%"},
      {"measurement": "KD of DP6 with respect to the CT domain, times stronger than the KD of the natural peptides", "setting": "[4]", "value": "at least 12 times"},
      {"measurement": "anisotropy change for nspDNA on titration of TetCT mutant", "setting": "[5]", "value": "no significant change in anisotropy"},
      {"measurement": "increase of the KD of FL-p53 for nspDNA", "setting": "[6]; at 600 μM than at 0 μM DP6", "value": 7, "unit": "fold"}
    ]},
    {"smiles": "NC(=O)C[C@H](NC(=O)[C@H](CC(N)=O)NC(=O)[C@H](CC(=O)O)NC(=O)[C@H](CCC(=O)O)NC(=O)[C@H](CCC(=O)O)NC(=O)[C@H](CCC(=O)O)NC(=O)[C@@H](N)CCC(=O)O)C(=O)N[C@@H](CC(=O)O)C(=O)N[C@@H](CC(=O)O)C(=O)N[C@@H](CC(=O)O)C(=O)N[C@@H](CCC(=O)O)C(=O)N[C@@H](CCC(=O)O)C(=O)N[C@@H](CCC(=O)O)C(=O)O", "note": "[DP5] (H-EEEEDNNDDDEEE-OH)", "values": [
      {"measurement": "effect on the affinity of FL-p53 for DNA", "setting": "[6]; DP5, nspDNA and spDNA (Fig. S7, Table S2)", "value": "did not affect the affinity of FL-p53"}
    ]}
  ]
}
